Measurements as given in patent US12398107B2, “Fungicidal nitroanilino substituted pyrazoles” (FMC Corporation, priority 2018, dated 2025).

Tests used:
Type in all cases: in vivo
[1] = system: Alternaria solani; experiment: Test F: tomato early blight, preventive spray on tomato seedlings; conditions: 100 = 100% disease control, 0 = no control; for pest or weed control at 50 ppm / Test F disease control rating (tomato early blight): 50 ppm
Procedure, shortened: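 Preventive test: one day after seedlings were sprayed to run-off with ppm-level suspensions (acetone/water 50/50, 250 ppm PEG400), A. solani spore inoculation followed. Incubation was 48 h at 27° C in saturated air plus 3 days at 20° C; disease control was scored visually versus controls (100 = full control).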

[2] = system: Botrytis cinerea; experiment: Test E: tomato Botrytis, preventive spray on tomato seedlings; conditions: 100 = 100% disease control, 0 = no control; for pest or weed control at 50 ppm / Test E disease control rating (tomato Botrytis): 50 ppm
Procedure, shortened: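 Preventive test: spore inoculation one day after run-off spraying of compound suspension (3% acetone, acetone/water 50/50, 250 ppm PEG400). Incubation 20 °C saturated humidity for 48 h, followed by 3 days at 24 °C growth chamber; disease control scored visually, 100 = full control.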

[3] = system: Phakopsora pachyrhizi; experiment: Test D: Asian soybean rust, preventive spray on soybean seedlings; conditions: 100 = 100% disease control, 0 = no control; for pest or weed control at 50 ppm / Test D disease control rating (Asian soybean rust): 50 ppm
Procedure, shortened: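 Soybean seedlings sprayed to run-off with compound suspension (ppm, in 50/50 acetone/water with 250 ppm PEG400), inoculated next day with P. pachyrhizi spores, held 24 h saturated at 22°C then 8 days at 22°C. Visual rating 0-100% disease control relative to controls.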

[4] = system: Puccinia recondita f. sp. tritici; experiment: Test B: wheat leaf rust, preventive spray on wheat seedlings; conditions: 100 = 100% disease control, 0 = no control relative to controls; for pest or weed control at 50 ppm / Test B disease control rating (wheat leaf rust): 50 ppm
Procedure, shortened: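 Wheat seedlings got a run-off spray (ppm, acetone/water 50/50, 250 ppm PEG400) and one day later a spore inoculum. After 24 h at 20° C. in saturated air and 7 days at 20° C., disease was scored as % control relative to controls (100 = full control).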

[5] = system: Septoria tritici; experiment: Test A: wheat leaf blotch, preventive spray on wheat seedlings; conditions: 100 = 100% disease control, 0 = no control relative to controls; for pest or weed control at 50 ppm / Test A disease control rating (wheat leaf blotch): 50 ppm
Procedure, shortened: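 Preventive test: seedlings sprayed to run-off one day before Septoria tritici spore inoculation, with ppm doses in acetone/water containing 250 ppm PEG400. After 48 h at 24 °C in saturated air and 17 days at 20 °C, plants were scored 0–100 for disease control versus untreated controls.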

[6] = system: Blumeria graminis f. sp. tritici; experiment: Test C: wheat powdery mildew, preventive spray on wheat seedlings; conditions: rated after 8 days, 100 = 100% disease control, 0 = no control; for pest or weed control at 50 ppm / Test C disease control rating (wheat powdery mildew): 50 ppm
Procedure, shortened: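 Wheat seedlings got a run-off spray of test suspension (ppm in acetone/water 50/50, 250 ppm PEG400, acetone 3% of volume), then spore-dust inoculation with wheat powdery mildew one day later. After 8 days' growth-chamber incubation at 20° C, disease control scored visually on a 0–100 scale versus untreated controls.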

[7] = Alternaria solani, read-out: Test F disease control rating (tomato early blight)
[8] = Botrytis cinerea, read-out: Test E disease control rating (tomato Botrytis)
[9] = Phakopsora pachyrhizi, read-out: Test D disease control rating (Asian soybean rust)
[10] = read-out: Test B disease control rating (wheat leaf rust)
[11] = Zymoseptoria tritici, read-out: Test A disease control rating (wheat leaf blotch)
[12] = Blumeria graminis, 192 h, read-out: Test C disease control rating (wheat powdery mildew)

Compound | pest or weed control at 10 ppm ([1]; Alternaria solani, 10 ppm, read-out: Test F disease control rating (tomato early blight)) | pest or weed control at 50 ppm [1, 7] | pest or weed control at 10 ppm ([2]; Botrytis cinerea, 10 ppm, read-out: Test E disease control rating (tomato Botrytis)) | pest or weed control at 50 ppm [2, 8] | pest or weed control at 10 ppm ([3]; Phakopsora pachyrhizi, 10 ppm, read-out: Test D disease control rating (Asian soybean rust)) | pest or weed control at 50 ppm [3, 9] | pest or weed control at 10 ppm ([4]; 10 ppm, read-out: Test B disease control rating (wheat leaf rust)) | pest or weed control at 50 ppm [4, 10] | pest or weed control at 10 ppm ([5]; Zymoseptoria tritici, 10 ppm, read-out: Test A disease control rating (wheat leaf blotch)) | pest or weed control at 50 ppm [5, 11] | pest or weed control at 10 ppm ([6]; Blumeria graminis, 192 h, 10 ppm, read-out: Test C disease control rating (wheat powdery mildew)) | pest or weed control at 50 ppm [6, 12] | Test F disease control rating (tomato early blight) [1] | Test E disease control rating (tomato Botrytis) [2] | Test D disease control rating (Asian soybean rust) [3] | Test B disease control rating (wheat leaf rust) [4] | Test A disease control rating (wheat leaf blotch) [5] | Test C disease control rating (wheat powdery mildew) [6]
Cc1cc(F)c(Nc2c(-c3ccc(F)cc3Cl)c(C)nn2C)c([N+](=O)[O-])c1 [Compound 93, 4-(2-chloro-4-fluorophenyl)-N-(2-fluoro-4-methyl-6-nitrophenyl)-1,3-dimethyl-1H-pyrazol-5-amine] | 99% | 99% | 99% | 100% | 87% | 100% | 100% | 100% | 99% | 100% | 97% | 99% | – | – | – | – | – | –
Cc1nn(C)c(Nc2ccc(OC(F)(F)F)cc2[N+](=O)[O-])c1-c1ccc(F)cc1Cl [Compound 94] | – | – | – | – | – | – | – | – | – | – | – | – | 9% | 0% | 73% | 0% | 73% | 72%
CCc1nn(C)c(Nc2c(F)cc(F)cc2[N+](=O)[O-])c1-c1ccc(F)cc1Cl [Compound 95] | – | – | – | – | – | – | – | – | – | – | – | – | 99% | 99% | 84% | 100% | 100% | 100%
Cc1nn(C)c(Nc2c(Cl)cc(Cl)cc2[N+](=O)[O-])c1-c1c(F)cccc1F [Compound 96] | – | – | – | – | – | – | – | – | – | – | – | – | 0% | 80% | 0% | 95% | 100% | 0%
COc1cc(F)c(Nc2c(-c3c(F)cccc3F)c(C)nn2C)c([N+](=O)[O-])c1 [Compound 97] | – | – | – | – | – | – | – | – | – | – | – | – | 99% | 100% | 96% | 100% | 100% | 100%
Cc1nn(C)c(Nc2c(F)cc(Cl)cc2[N+](=O)[O-])c1-c1c(F)cccc1F [Compound 98] | – | – | – | – | – | – | – | – | – | – | – | – | 98% | 99% | 0% | 97% | 100% | 93%
Cc1nn(C)c(Nc2cccc(Cl)c2[N+](=O)[O-])c1-c1c(F)cccc1F [Compound 99] | – | – | – | – | – | – | – | – | – | – | – | – | 0% | 24% | 0% | 0% | 99% | 0%
Cc1cc(Cl)c(Nc2c(-c3c(F)cccc3F)c(C)nn2C)c([N+](=O)[O-])c1 [Compound 100] | – | – | – | – | – | – | – | – | – | – | – | – | 0% | 26% | 0% | 89% | 100% | 21%
Cc1nn(C)c(Nc2c(Cl)cc(Cl)cc2[N+](=O)[O-])c1-c1ccc(F)cc1F [Compound 101] | – | – | – | – | – | – | – | – | – | – | – | – | 0% | 99% | 44% | 99% | 100% | 89%
Cc1nn(C)c(Nc2c(F)cc(Cl)cc2[N+](=O)[O-])c1-c1ccc(F)cc1F [Compound 102] | – | – | – | – | – | – | – | – | – | – | – | – | 99% | 99% | 48% | 100% | 100% | 100%
CCOc1ccc(Nc2c(-c3ccc(F)cc3Cl)c(C)nn2C)c([N+](=O)[O-])c1 [Compound 103] | – | – | – | – | – | – | – | – | – | – | – | – | 0% | 83% | 0% | 80% | 97% | 50%
Cc1nn(C)c(Nc2ccc(OC(C)C)cc2[N+](=O)[O-])c1-c1ccc(F)cc1Cl [Compound 104] | – | – | – | – | – | – | – | – | – | – | – | – | 0% | 0% | 0% | 0% | 60% | 72%
Cc1ccc(Nc2c(-c3c(F)cccc3F)c(C)nn2C)c([N+](=O)[O-])c1 [Compound 105] | – | – | – | – | – | – | – | – | – | – | – | – | 0% | 73% | 0% | 74% | 99% | 86%
Cc1nn(C)c(Nc2c(Cl)cccc2[N+](=O)[O-])c1-c1ccc(F)cc1Cl [Compound 108] | – | – | – | – | – | – | – | – | – | – | – | – | 77% | 100% | 86% | 100% | 100% | 97%
Cc1nn(C)c(Nc2c(F)cc(F)cc2[N+](=O)[O-])c1-c1ccc(F)cc1Cl [Compound 109] | – | – | – | – | – | – | – | – | – | – | – | – | 99% | 100% | 93% | 100% | 100% | 100%
Cc1nn(C)c(Nc2c(Br)cccc2[N+](=O)[O-])c1-c1ccc(F)cc1Cl [Compound 110] | – | – | – | – | – | – | – | – | – | – | – | – | 0% | 99% | 73% | 98% | 100% | 56%
Cc1nn(C)c(Nc2ccc(F)cc2[N+](=O)[O-])c1-c1ccc(F)cc1Cl [Compound 111, 4-(2-chloro-4-fluorophenyl)-N-(4-fluoro-2-nitrophenyl)-1,3-dimethyl-1H-pyrazol-5-amine] | – | 93% | – | 100% | – | 0% | – | 99% | – | 100% | – | 99% | – | – | – | – | – | –
